Data on 13 molecules can be found in US8796250B2, “Diaryl ureas for diseases mediated by PDGFR” (Bayer Healthcare LLC, priority 2003, dated 2014).

What is called IC50 is the concentration that gives 50% inhibition.

T2 sequence (P09619 33-1106): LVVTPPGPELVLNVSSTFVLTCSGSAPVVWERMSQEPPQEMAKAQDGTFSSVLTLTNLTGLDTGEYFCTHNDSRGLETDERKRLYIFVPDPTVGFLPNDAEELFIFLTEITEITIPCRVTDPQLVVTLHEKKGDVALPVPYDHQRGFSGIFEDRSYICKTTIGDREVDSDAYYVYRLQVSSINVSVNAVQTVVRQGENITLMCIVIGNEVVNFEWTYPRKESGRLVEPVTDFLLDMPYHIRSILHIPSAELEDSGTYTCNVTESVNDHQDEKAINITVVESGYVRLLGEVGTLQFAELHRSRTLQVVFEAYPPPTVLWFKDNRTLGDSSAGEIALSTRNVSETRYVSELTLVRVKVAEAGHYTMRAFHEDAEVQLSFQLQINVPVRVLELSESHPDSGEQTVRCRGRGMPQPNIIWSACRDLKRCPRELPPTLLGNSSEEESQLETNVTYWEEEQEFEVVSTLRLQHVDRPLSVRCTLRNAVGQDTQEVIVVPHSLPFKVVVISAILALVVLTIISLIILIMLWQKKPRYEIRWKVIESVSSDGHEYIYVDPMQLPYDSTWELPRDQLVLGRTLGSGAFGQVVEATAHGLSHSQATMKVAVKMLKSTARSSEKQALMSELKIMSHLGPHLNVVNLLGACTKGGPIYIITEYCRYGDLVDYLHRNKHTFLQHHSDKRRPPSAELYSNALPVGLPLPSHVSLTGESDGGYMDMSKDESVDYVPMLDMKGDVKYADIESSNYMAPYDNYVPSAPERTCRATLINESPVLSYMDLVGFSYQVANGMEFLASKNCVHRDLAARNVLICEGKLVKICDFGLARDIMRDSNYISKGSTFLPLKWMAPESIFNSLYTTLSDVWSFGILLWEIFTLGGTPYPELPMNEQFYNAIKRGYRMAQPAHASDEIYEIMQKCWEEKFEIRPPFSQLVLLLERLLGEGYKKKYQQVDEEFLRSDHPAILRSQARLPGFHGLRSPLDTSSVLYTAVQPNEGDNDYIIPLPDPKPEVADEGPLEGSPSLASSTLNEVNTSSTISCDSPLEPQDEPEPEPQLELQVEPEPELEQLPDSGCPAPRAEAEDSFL

The first assay deals with T1, mouse PDGFR (PDGFR beta) (Mus musculus, UniProt P05622).
T1 construct: made in house
T1 sequence (P05622 32-1098): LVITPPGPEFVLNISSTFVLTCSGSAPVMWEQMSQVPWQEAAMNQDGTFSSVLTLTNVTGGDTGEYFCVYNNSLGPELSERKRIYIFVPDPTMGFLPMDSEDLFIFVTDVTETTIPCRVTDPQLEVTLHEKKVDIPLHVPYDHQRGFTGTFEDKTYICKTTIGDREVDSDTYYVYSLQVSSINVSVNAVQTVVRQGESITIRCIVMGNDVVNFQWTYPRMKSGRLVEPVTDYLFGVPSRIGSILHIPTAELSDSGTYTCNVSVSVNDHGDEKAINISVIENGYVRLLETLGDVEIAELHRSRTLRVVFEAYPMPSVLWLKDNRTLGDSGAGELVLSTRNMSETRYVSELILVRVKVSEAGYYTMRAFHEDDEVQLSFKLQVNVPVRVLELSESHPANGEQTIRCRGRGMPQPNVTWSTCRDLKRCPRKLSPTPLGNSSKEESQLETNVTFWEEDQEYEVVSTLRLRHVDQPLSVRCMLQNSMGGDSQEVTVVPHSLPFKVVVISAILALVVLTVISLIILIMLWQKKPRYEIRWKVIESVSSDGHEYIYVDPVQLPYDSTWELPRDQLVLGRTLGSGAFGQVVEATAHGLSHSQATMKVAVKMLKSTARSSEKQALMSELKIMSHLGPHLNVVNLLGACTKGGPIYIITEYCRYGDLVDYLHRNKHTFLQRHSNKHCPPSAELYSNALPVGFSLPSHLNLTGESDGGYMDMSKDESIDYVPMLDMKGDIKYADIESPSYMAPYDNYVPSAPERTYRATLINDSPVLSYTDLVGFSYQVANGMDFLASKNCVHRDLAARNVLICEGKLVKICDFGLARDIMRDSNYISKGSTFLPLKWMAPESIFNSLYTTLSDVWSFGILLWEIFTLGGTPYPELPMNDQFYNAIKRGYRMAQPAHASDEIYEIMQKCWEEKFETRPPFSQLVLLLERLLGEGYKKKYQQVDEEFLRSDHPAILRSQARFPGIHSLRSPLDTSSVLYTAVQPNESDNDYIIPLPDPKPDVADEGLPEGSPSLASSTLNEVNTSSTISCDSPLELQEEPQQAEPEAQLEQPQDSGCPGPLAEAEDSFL
The experiment in a line: Murine PDGFR FRET Biochemical Assay. Particulars: 1 nM mouse PDGFR, 20 μM ATP, TR-FRET; read-out: IC50 in biochemical assay (inhibition of PDGFR).
From the text: Reaction is initiated upon addition of enzyme.
As for `CNC(=O)c1cc(Oc2ccc(NC(=O)Nc3ccc(Br)c(C(F)(F)F)c3)c(Cl)c2)ccn1` [N-(4-bromo-3-(trifluoromethyl)phenyl)-N′-(4-(2-(N-methylcarbamoyl)-4-pyridyloxy)-2-chlorophenyl) urea], the IC50 is less than 10 µM. As to `CNC(=O)c1cc(Oc2ccc(NC(=O)Nc3ccc(Br)c(C(F)(F)F)c3)c(F)c2)ccn1` [N-(4-bromo-3-(trifluoromethyl)phenyl)-N′-(4-(2-(N-methylcarbamoyl)-4-pyridyloxy)-2-fluorophenyl) urea], the IC50 was less than 10 µM.

Consider `CNC(=O)c1cc(Oc2ccc(NC(=O)Nc3ccc(Br)c(C(F)(F)F)c3)cc2)ccn1` [N-(4-bromo-3-(trifluoromethyl)phenyl)-N′-(4-(2-(N-methylcarbamoyl)-4-pyridyloxy)phenyl) urea], for which the IC50 is less than 10 µM.

Consider `CNC(=O)c1cc(Oc2ccc(NC(=O)Nc3ccc(Cl)c(C(F)(F)F)c3)cc2)cc[n+]1[O-]` [N-(4-chloro-3-(trifluoromethyl)phenyl)-N′-(4-(1-hydroxy-2-(N-methylcarbamoyl)-4-pyridyloxy)phenyl) urea], for which the IC50 was less than 10 µM. With `NC(=O)c1cc(Oc2ccc(NC(=O)Nc3ccc(Cl)c(C(F)(F)F)c3)cc2)cc[n+]1[O-]` [N-(4-chloro-3-(trifluoromethyl)phenyl)-N′-(4-(1-hydroxy-2-carbamoyl-4-pyridyloxy)phenyl) urea], the IC50 is less than 10 µM. Consider `CNC(=O)c1cc(Oc2ccc(NC(=O)Nc3ccc(Cl)c(C(F)(F)F)c3)c(Cl)c2)ccn1` [N-(4-chloro-3-(trifluoromethyl)phenyl)-N′-(4-(2-(N-methylcarbamoyl)-4-pyridyloxy)-2-chlorophenyl) urea], for which the IC50 is less than 10 µM. In the case of `CNC(=O)c1cc(Oc2ccc(NC(=O)Nc3ccc(Cl)c(C(F)(F)F)c3)cc2)ccn1` [N-(4-chloro-3-(trifluoromethyl)phenyl)-N′-(4-(2-(N-methylcarbamoyl)-4-pyridyloxy)phenyl) urea], the IC50 was less than 10 µM. Turning to `NC(=O)c1cc(Oc2ccc(NC(=O)Nc3ccc(Cl)c(C(F)(F)F)c3)cc2)ccn1` [N-(4-chloro-3-(trifluoromethyl)phenyl)-N′-(4-(2-carbamoyl-4-pyridyloxy)phenyl) urea], the IC50 was less than 10 µM. Same read-out and setting: under `CNC(=O)c1cc(Oc2ccc(NC(=O)Nc3ccc(F)c(C(F)(F)F)c3)c(F)c2)ccn1` [N-(4-fluoro-3-(trifluoromethyl)phenyl)-N′-(4-(2-(N-methylcarbamoyl)-4-pyridyloxy)-2-fluorophenyl) urea] stands less than 10 µM. For the molecule `N#Cc1cc(Oc2ccc(NC(=O)Nc3ccc4c(c3)C(F)(F)OC(F)(F)O4)c(F)c2)ccn1` [N-(6-(2,2,4,4-tetrafluoro-4H-benzo[1,3]dioxinyl))-N′-(4-(2-cyano-4-pyridyloxy)-2-fluorophenyl) urea], the IC50 was less than 10 µM. For the molecule `N#Cc1cc(Oc2ccc(NC(=O)Nc3ccc4c(c3)C(F)(F)OC(F)(F)O4)cc2)ccn1` [N-(6-(2,2,4,4-tetrafluoro-4H-benzo[1,3]dioxinyl))-N′-(4-(2-cyano-4-pyridyloxy)phenyl) urea], the IC50 is less than 10 µM.

The next assay concerns restenosis following angioplasty.
Assay: not given
The settings on record: G. Bilder et al. Circulation 1999; cited from earlier work.
For `COc1cc2ncc(-c3ccsc3)nc2cc1OC.Cl` [RPR101511A], the “effect on restenosis following angioplasty” value is recorded as “prevented angiographically defined restenosis following angioplasty”.

A further assay relates to neointimal formation.
Assay: not given
Particulars: rat model; M. Karck et al. 2002; cited from earlier work.
As to `Cc1cc2ncc(-c3ccccc3)nc2cc1C` [AG-1295], the “effect on neointimal formation in aortic allograft vasculopathy” value is on record as “reduce neointimal formation”.

The next assay concerns the target T2, PDGFR-beta phosphorylation (Tyr-857) in Aortic SMC stimulated with PDGF BB (Homo sapiens, UniProt P09619).
T2 construct: endogenous in cells; host or cells: Aortic SMC (AoSMC), passages P3-P6
The experiment in a line: pPDGFR-Beta Sandwich ELISA in AoSMC Cells. Type of assay: cell-based. The settings on record: 1 hr compound, 10 ng/mL PDGF BB for 7 minutes, read-out: IC50 in bioassay of PDGFR inhibition in cells.
Method: 100K P3-P6 Aortic SMC were plated in each well of 12-well cluster in 1000 uL volume/well of SGM-2 using standard cell culture techniques. Next day, cells were rinsed with 1000 uL D-PBS (Gibco) once, then serum starved in 500 uL SBM (smooth muscle cell basal media) with 0.1% BSA (Sigma, Cat A9576) overnight. Compounds were diluted at a dose range from (10 uM to 1 nM in 10-fold dilution steps in DMSO. Final DMSO concentration 0.1%). Remove old media by inversion into the sink quickly then add 100 ul of each dilution to corresponding well of cells for 1 hr at 37° C. Cells were then stimulated with 10 ng/mL PDGF BB ligand for 7 minutes at 37° C. The media is decanted and 150 uL of isotonic lysis buffer with protease inhibitor tablet (Complete; EDTA-free) and 0.2 mM Na vanadate is added. Cells are lysed for 15 min at 4° C. on shaker in cold room. […] Next day, beads are rinsed in 50-volumes of PBS three times and boiled in 1×LDS sample buffer (Invitrogen) for 5 minutes. Samples were run on 3-8% gradient Tris-Acetate gels (Invitrogen) and transferred onto Nitrocellulose. […] After three washes in TBS-T, membranes were incubated in Goat anti-rabbit HRP IgG (Amersham, 1:25000 dilution) for 1 hr. Three more washes followed before addition of ECL substrate. Membranes were exposed to Hyperfilm-ECL.
Take `CNC(=O)c1cc(Oc2ccc(NC(=O)Nc3ccc(Cl)c(C(F)(F)F)c3)c(Cl)c2)ccn1` [N-(4-chloro-3-(trifluoromethyl)phenyl)-N′-(4-(2-(N-methylcarbamoyl)-4-pyridyloxy)-2-chlorophenyl) urea]: the IC50 is less than 10 µM.
